Assays:
[1] = system: IGF-1-stimulated DNA synthesis; experiment: IGF-1-stimulated DNA synthesis ([3H]-thymidine incorporation) in NIH 3T3 overexpressing IGFR; assay type: cell-based; conditions: concentrations as high as 100 μM
Experimental: (§1) Starved NIH 3T3 or NIH 3T3 overexpressing IGFR are treated for 16 hours with indicated concentrations of GFB-111 and either 10 ng/ml PDGF or 50 ng/ml IGF-1, respectively, then labeled for 2 hr (NIH 3T3) or 4 hr (IGFR) with ^3H-thymidine. Cells are then washed in PBS, lysed in 0.1N NaOH and spotted onto glass fiber filters. DNA is precipitated with ice cold ethanol then ^3H-thymidine incorporation quantified by scintillation counting.
(§2) The selectivity of PDGF-induced cellular responses, is evaluated by the selectivity of GFB-111 to inhibit growth factor-stimulated DNA synthesis using a [^3H]-thymidine incorporation assay. […] In contrast GFB-111 is ineffective at inhibiting IGF-1-stimulated DNA synthesis at concentrations as high as 100 μM (FIG. 4).

[2] = system: PDGF-BB stimulated DNA synthesis in NIH 3T3 cells; assay type: cell-based; conditions: 3 h
Experimental: as §1, §2

[3] = system: EGF-stimulated EGFR tyrosine phosphorylation and Erk1/Erk2 activation; experiment: EGF-stimulated EGFR tyrosine phosphorylation and Erk1/Erk2 activation in NIH 3T3 cells overexpressing EGFR; assay type: cell-based; conditions: GFB-111 at concentrations as high as 100 μM
Experimental: (§3) Starved NIII 3T3 cells (PDGF-BB and PDGF-AA), NIH 3T3 cells overexpressing either EGFR (EGF) or Flk-1 (VEGF) are pre-treated with the indicated concentrations of GFB-111 for 5 minutes before 10 minutes of stimulation with PDGF-BB (10 ng/ml), PDGF-AA (10 ng/ml), EGF (100 ng/ml) and VEGF (50 ng/ml). Cell lysates are run on SDS-PAGE gels, then transferred to nitrocellulose and Western blotted with anti-phosphotyrosine (4G 10) or anti-phosphorylated Erk1/Erk2 (New England Biolabs).

[4] = system: angiogenesis in U87-MG tumors; experiment: Angiogenesis: Factor VIII immunostaining and microvessel count in U87MG tumors; assay type: in vivo, nude mice; conditions: for Microvessel count (Mean ± SD) 250X / Microvessel count (Mean ± SD) 400X: U87-MG tumor
Experimental: (§4) On the indicated termination day of each nude mouse experiment described above, (see also Table 2), the tumors are extracted and half frozen at −70° C., and half is fixed in 10% neutral buffered formalin for 6 hrs. After fixation the tissue samples are processed into paraffin blocks. Four micrometer-thick tissue sections are obtained from the paraffin blocks and stained with hematoxylin and eosin (H&E) (Richard-Allan Scientific, Kalamazoo, Mich.) using standard histologic techniques. Tissue sections are also subjected to immunostaining for Factor VIII using the avidin biotin peroxidase complex technique (Vectastatin Elite ABC Kit, Vector, Burlingame, Calif.). Rabbit polyclonal FVIII antibody (Von Willebrand Factor, Dako Corporation, Carpinteria, Calif.) is used at 1:400 dilution, following microwave antigen retrieval (4 cycles of 5 minutes each on high in 0.1M citrate buffer).

[5] = molecular target: T1, PDGF-BB (Homo sapiens, UniProt P01127); experiment: Inhibition of [125I]-PDGF-BB binding to its receptor on NIH 3T3 cells; conditions: FIG. 2C
T1 construct: host or cells: NIH 3T3 cells carry the receptor
T1 sequence (P01127 82-190 limits assumed): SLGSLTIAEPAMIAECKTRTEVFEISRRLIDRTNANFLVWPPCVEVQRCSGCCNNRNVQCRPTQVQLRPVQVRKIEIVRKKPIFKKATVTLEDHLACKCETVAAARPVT
Experimental: (§5) NIH 3T3 (PDGF) or NIH 3T3 cells overexpressing either EGFR (EGF), IGFR (IGF) or Flk-1 (VEGF), are incubated with [^125I]-PDGF, [^125I]-EGF, [^125I]-IGF or [^125I]-VEGF, respectively (50,000 cpm per well) and increasing concentrations of GFB-111 or GFB-116. Cells are incubated at 4° C. for 1-3 h. After discarding media, the cells are washed 3 times with PBS and three times with Tris 25 mM pH 8.0, 1% T-X-100, 10% glycerol, 1% SDS. Lysates plus wash are counted. Excess of cold growth factors is used to obtain non-specific binding levels.
(§6) Whether GFB 111 can block [^125I]-PDGF-BB specific binding in NIH 3T3 cells is determined by pre-treatment of the PDGF-BB with increasing concentrations of GFB-111. FIG. 2C illustrates that in the absence of GFB-111, [^125I]-PDGF-BB is bound by NIH3T3 cells. However, pre-treatment with increasing concentrations of GFB-111, results in a concentration-dependent decrease in PDGF-BB binding.

[6] = system: PDGF-AA stimulated PDGF receptor phosphorylation and Erk1/Erk2 activation; experiment: PDGF-AA stimulation of PDGF receptor phosphorylation and Erk1/Erk2 activation in NIH 3T3 cells; assay type: cell-based; conditions: NIH 3T3, PDGF-AA 10 ng/ml
Experimental: as §3

[7] = molecular target: T2, EGF (Homo sapiens, UniProt P01133); experiment: Inhibition of [125I]-EGF binding to NIH 3T3 cells overexpressing EGFR; conditions: 10 μM
T2 construct: host or cells: NIH 3T3 cells overexpressing EGFR carry the receptor
T2 sequence (P01133 971-1023 limits assumed, species assumed): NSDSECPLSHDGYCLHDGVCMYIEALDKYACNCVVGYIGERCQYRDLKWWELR
Experimental: as §5, §6

[8] = system: angiogenesis in C6 tumors; experiment: Angiogenesis: microvessel count in C6 tumors; assay type: in vivo, nude mice
Experimental: as §4

[9] = system: IGF-1 stimulated IGF-1R tyrosine phosphorylation; experiment: Inhibition of IGF-1 stimulated IGFR tyrosine phosphorylation in IGFR/3T3 cells; assay type: cell-based; conditions: 100 μM; IGFR/3T3, IGF-1 stimulated
Experimental: The ability of the GFB library to block the ability of IGF-1 to stimulate the IFG-1 R tyrosine phosphorylation and MAP kinase activation is evaluated using the cell assay described above with IGF-1R/3T3 cells as target cell. […] A preferred embodiment of the invention is a compound that binds to an insulin-like growth factor-1, of the general structure III, wherein R is n-butyl, n-propyl, or benzyl, and X1, X2, X3, and X4 optionally comprise identical cyclic peptide loops of the general structure II, and wherein R1, R2, R3, and R4 are each amino acid side chains that define a tetrapeptide sequence, wherein said tetrapeptide is covalently attached at the amino and carboxy termini of said tetrapeptide to a 3-aminomethyl-5-aminobenzamide linking group.

[10] = system: human medulloblastoma DaOY; experiment: Antitumor efficacy, DaOY xenograft in nude mice; assay type: in vivo; conditions: 50 mg per kg per day
[11] = molecular target: IGF-1 (insulin-like growth factor-1) (Homo sapiens, UniProt P05019); experiment: Binding to IGF-1 by gel electrophoresis
Sequence of IGF-1 (insulin-like growth factor-1) (P05019 49-118 limits assumed, species assumed): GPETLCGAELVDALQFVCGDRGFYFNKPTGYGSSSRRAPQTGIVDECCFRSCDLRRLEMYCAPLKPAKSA

[12] = molecular target: T3, VEGF (Homo sapiens, UniProt P15692); experiment: Inhibition of [125I]-VEGF binding to NIH 3T3 cells overexpressing VEGFR (Flk-1)
T3 construct: host or cells: NIH 3T3 cells overexpressing Flk-1 carry the receptor
T3 sequence (P15692 27-191 isoform P15692-4, species assumed): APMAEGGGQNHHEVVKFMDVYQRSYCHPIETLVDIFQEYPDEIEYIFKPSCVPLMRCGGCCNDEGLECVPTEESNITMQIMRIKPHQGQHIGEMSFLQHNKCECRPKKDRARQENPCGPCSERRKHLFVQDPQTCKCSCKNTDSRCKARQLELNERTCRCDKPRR
Experimental: as §5, §6

[13] = system: PDGF-stimulated PDGFR tyrosine phosphorylation; experiment: Inhibition of PDGF-stimulated PDGFR tyrosine phosphorylation in NIH 3T3 cells (anti-phosphotyrosine Western blot); assay type: cell-based; conditions: concentrations as high as 10 mM

Compound | Inhibition of IGF-1-stimulated DNA synthesis [1] | IC50 [2] | Effect on EGF-stimulated EGFR tyrosine phosphorylation and Erk1/Erk2 activation [3] | Microvessel count (Mean ± SD) 250X ([4]; 100 mpk) | Microvessel count (Mean ± SD) 400X ([4]; 100 mpk) | Microvessel count (Mean ± SD) 250X ([4]; 200 mpk) | Microvessel count (Mean ± SD) 400X ([4]; 200 mpk) | Inhibition of angiogenesis ([4]; U87MG tumors) | Factor VIII immunostaining in tumors ([4]; U87MG, day 32, 50, 100 and 200 mg per kg) | Block of PDGF-BB binding to its receptor [5] | PDGF-AA stimulation of PDGF receptor phosphorylation and Erk1/Erk2 activation [6] | Effect on [125I]-EGF binding [7] | Microvessel count (Mean ± SD) 250X ([8]; C6 tumor, 50 mpk) | Microvessel count (Mean ± SD) 400X ([8]; C6 tumor, 50 mpk) | Inhibition of angiogenesis ([8]; C6 tumors) | % Inhibition at 100 μM IGF1R-Y-P [9] | Growth of DaOY tumors [10] | Binding to IGF-1 [11] | inhibition at 10 µM [12] | Inhibition of PDGF-stimulated PDGFR tyrosine phosphorylation [13]
CCCCOc1c2cc(C(=O)Nc3cc4cc(c3)C(=O)NCC(=O)N[C@@H](CC(=O)O)C(=O)NCC(=O)N[C@@H](Cc3ccc(O)cc3)C(=O)NC4)cc1Cc1cc(C(=O)Nc3cc4cc(c3)C(=O)NCC(=O)N[C@@H](CC(=O)O)C(=O)NCC(=O)N[C@@H](Cc3ccc(O)cc3)C(=O)NC4)cc(c1OCCCC)Cc1cc(C(=O)Nc3cc4cc(c3)C(=O)NCC(=O)N[C@@H](CC(=O)O)C(=O)NCC(=O)N[C@@H](Cc3ccc(O)cc3)C(=O)NC4)cc(c1OCCCC)Cc1cc(C(=O)Nc3cc4cc(c3)C(=O)NCC(=O)N[C@@H](CC(=O)O)C(=O)NCC(=O)N[C@@H](Cc3ccc(O)cc3)C(=O)NC4)cc(c1OCCCC)C2 [GFB-111] | ineffective | 6.5 µM | does not affect | 7.73 ± 2.61 | 5.20 ± 1.71 | 5.13 ± 3.10 | 3.07 ± 1.94 | strongly | decreased in a dose-dependent manner | blocked | blocked | lack of significant effects | 14.27 ± 4.79 | 7.97 ± 2.83 | to a lesser degree | −12.4% | minimally affected | does not bind | 50% | –
GKGK [GFB-116] | – | – | – | – | – | – | – | – | – | not | – | – | – | – | – | – | – | – | – | does not inhibit

— US8361970B2, “Growth factor binding molecules” (University of South Florida, priority 2000, dated 2013)
